Results as given in US9981972B2, “N-hydroxy bicyclic hydantoin carbamates as tools for identification of serine hydrolase targets” (ABIDE THERAPEUTICS, INC., priority 2014, dated 2018).

Target: T1, PPT1 (Homo sapiens, UniProt P50897)
T1 sequence (P50897 28-306): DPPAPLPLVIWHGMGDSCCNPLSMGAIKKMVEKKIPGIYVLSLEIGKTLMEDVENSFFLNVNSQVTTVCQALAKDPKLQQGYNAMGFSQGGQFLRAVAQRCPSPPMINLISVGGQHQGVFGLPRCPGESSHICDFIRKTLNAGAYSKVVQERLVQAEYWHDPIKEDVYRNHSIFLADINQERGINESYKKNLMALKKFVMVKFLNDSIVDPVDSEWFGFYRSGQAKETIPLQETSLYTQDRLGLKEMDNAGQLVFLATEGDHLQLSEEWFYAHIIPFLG
Assay: In situ inhibition of hPPT1 in transfected HEK293T cells, competitive ABPP with Compound 39 probe
Format: cell-based
Design: expressed in transfected cells; host or cells: HEK293T
Conditions: 2 μM, hPPT1-transfected HEK293T cells, in situ
Protocol: HEK293T cells were seeded at 2×10^5 per well on 6 well plates and grown for 48 h. They were then transfected with mABHD3 (pCMV-Sport6), hABHD4 (pcDNA3.1/myc-his), hPPT1 (pCMV6-XL5), or hPPT1 S115A (pCMV6-XL5), by incubating 0.5 μg of DNA with 3 μL of PEI MAX (1 mg/mL, Polysciences, Inc) in serum-free DMEM for 30 min, then adding them to cells. After 48 h cells were either treated with compound in situ, as described above, or harvested for in vitro studies. The […] PPT1 mutation was introduced using QuikChange II Site Directed Mutagenesis Kit (Agilent) with the following primers: […]
In situ inhibitor treatments of human cell lines were performed as described previously (Hsu et al., J Med Chem 56, 8270-8279, 2012). Briefly, PC3 or transfected HEK293T cells were grown to confluency in serum-containing media (RPMI or DMEM, respectively). The culture media was then removed and replaced with fresh media containing DMSO or inhibitor at the desired concentration and incubated for 4 hours in a tissue culture incubator (37° C., 5% CO2). Cells were then washed with PBS, harvested, washed with PBS once more, and lysed with a probe sonicator.
This possibility was explored by treating HEK293T cells transfected with human PPT1 (hPPT1) with Compound 37 (5 μM, 4 h pre-treatment) or DMSO followed by cell lysis and treatment with Compound 39 (5 μM, 1 h). A strong, but diffuse Compound 37-sensitive, Compound 39-labeled protein band was detected by gel-based ABPP in hPPT1-transfected, but not mock-transfected cell lysates (see FIG. 14), and this diffuse signal was compressed to a tight, faster-migrating band matching the predicted molecular weight of PPT1 following treatment with the glycosidase PNGaseF (see FIG. 14). Western blotting with an anti-PPT1 antibody confirmed a similar migration pattern for hPPT1 protein in transfected cell lysates (see FIG. 14, bottom panel).
A structurally diverse panel of N-hydroxy bicyclic hydantoin carbamates were assayed at 2 or 0.2 μM for in situ inhibition of hPPT1 in transfected HEK293T cells.

COc1ccc(N2CCN(C(=O)ON3C(=O)C4CN(CC5CCN(C(=O)OC(C)(C)C)CC5)CCN4C3=O)CC2)cc1 (stereo not shown) [Compound 24, 7-((1-(tert-butoxycarbonyl)piperidin-4-yl)methyl)-1,3-dioxohexahydroimidazo[1,5-a]pyrazin-2(3H)-yl 4-(4-methoxyphenyl)piperazine-1-carboxylate]
hPPT1 (in situ), % @ 2 μM: 100% @ 2 μM
